Reference: publication PMC11357054, “Azobenzenesulfonamide Carbonic Anhydrase Inhibitors as New Weapons to Fight Helicobacter pylori: Synthesis, Bioactivity Evaluation, In Vivo Toxicity, and Computational Studies” (Pharmaceuticals, 2024)
pKi: −log10 of the molar value. ≈ marks a conversion by molar mass, not a printed value. Like-named read-outs stand apart in the source and are kept apart here.

How the values were obtained:
HpαCA = target: T1, HpαCA (Helicobacter pylori, UniProt B5Z8I0); assay: stopped-flow CO2 hydration; assay type: biochemical
T1 construct: gene HPG27_1129; recombinant, obtained in-house; PDB 4XFW is given for docking only
T1 sequence (B5Z8I0 22-247): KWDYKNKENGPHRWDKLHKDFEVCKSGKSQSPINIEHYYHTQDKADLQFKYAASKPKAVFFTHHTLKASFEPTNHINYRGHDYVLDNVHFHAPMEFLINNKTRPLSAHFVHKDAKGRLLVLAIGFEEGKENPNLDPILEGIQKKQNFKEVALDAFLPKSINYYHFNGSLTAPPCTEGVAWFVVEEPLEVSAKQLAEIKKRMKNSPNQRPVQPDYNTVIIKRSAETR

PsCA3 [1] = target: T2, PsCA3 (Pseudomonas aeruginosa, UniProt Q9HVB9); assay: stopped-flow CO2 hydration; assay type: biochemical; conditions: read-out: KI (nM) * / Bacterial Isoforms / Ps CA3
T2 construct: gene PA4676; recombinant, obtained in-house
T2 sequence (Q9HVB9 1-215): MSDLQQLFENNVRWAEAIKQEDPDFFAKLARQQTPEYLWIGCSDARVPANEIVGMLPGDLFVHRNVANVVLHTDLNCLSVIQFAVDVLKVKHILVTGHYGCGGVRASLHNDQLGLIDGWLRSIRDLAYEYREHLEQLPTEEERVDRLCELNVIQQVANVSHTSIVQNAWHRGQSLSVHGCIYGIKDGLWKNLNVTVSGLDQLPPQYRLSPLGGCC

hCA XII [2] = target: T3, hCA XII (Homo sapiens, UniProt O43570); assay: stopped-flow CO2 hydration; assay type: biochemical; conditions: read-out: KI (nM) * / Human Isoforms / hCA XII
T3 construct: gene CA12
Description: stopped-flow CO2 hydration on hCA XII

hCA I [3] = target: T4, hCA I (Homo sapiens, UniProt P00915); assay: stopped-flow CO2 hydration; assay type: biochemical; conditions: read-out: KI (nM) * / Human Isoforms / hCA I
T4 construct: gene CA1; purchased from Merck
Description: stopped-flow CO2 hydration on hCA I

HpβCA = target: T5, HpβCA (Helicobacter pylori, UniProt Q9ZN54); assay: stopped-flow CO2 hydration; assay type: biochemical; conditions: read-out: KI (nM) * / Bacterial Isoforms / Hp βCA
T5 construct: gene cynT; recombinant, obtained in-house
T5 sequence (Q9ZN54 1-221): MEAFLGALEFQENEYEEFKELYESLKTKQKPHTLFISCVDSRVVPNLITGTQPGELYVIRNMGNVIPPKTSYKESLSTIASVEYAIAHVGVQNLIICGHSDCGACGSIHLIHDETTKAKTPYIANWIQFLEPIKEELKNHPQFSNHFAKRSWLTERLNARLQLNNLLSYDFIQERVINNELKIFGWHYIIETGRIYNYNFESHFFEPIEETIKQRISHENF

PgiγCA = target: T6, PgiγCA; assay: stopped-flow CO2 hydration; assay type: biochemical, Porphyromonas gingivalis; conditions: pH […] HEPES, […] Na2SO4, […] min preincubation, r.t.; read-out: KI (nM) * / Bacterial Isoforms / Pgi γCA
T6 construct: gene PgiCA; recombinant, obtained in-house

EcoβCA [4] = target: T7, EcoβCA (Escherichia coli, UniProt P61517); assay: stopped-flow CO2 hydration; assay type: biochemical; conditions: read-out: KI (nM) * / Bacterial Isoforms / Eco βCA
T7 construct: gene can; recombinant, obtained in-house

PgiβCA = target: T8, PgiβCA; assay: stopped-flow CO2 hydration; assay type: biochemical, Porphyromonas gingivalis; conditions: pH […] HEPES, […] Na2SO4, […] min preincubation, r.t.; read-out: KI (nM) * / Bacterial Isoforms / Pgi βCA
T8 construct: gene PgiCAb; recombinant, obtained in-house

H. pylori ATCC 43504 = test system: T9, H. pylori ATCC 43504; assay: microbe, parasite or virus in culture; parameters: species or system Helicobacter pylori ATCC 43504; MIC by broth microdilution, alamarBlue and CFU count; MBC by CFU count; conditions: Helicobacter pylori, ATCC43504
T9 construct: ATCC 43504
Method: H. pylori ATCC 43504 was cultured on a Columbia Agar base (Becton Dickinson and Company, Franklin Lakes, NJ, USA) supplemented with 10% horse serum (Merck, St. Louis, MO, USA) and 0.25% yeast extract (Oxoid Ltd., Hampshire, UK), incubated at 37 °C for 72 h in a microaerophilic atmosphere (CampyGen, Thermo Fisher Scientific, Milan, Italy). Colonies were collected and transferred into 10 mL of Brain Heart Infusion broth (BHI, Oxoid Ltd., Hampshire, UK) supplemented with 5% (v/v) of fetal bovine serum (FBS, Merck, Milan, Italy) and incubated overnight at 37 °C, at 125 rpm under microaerophilic conditions. After 18 h of incubation, the broth culture was diluted to obtain a bacterial suspension of 10^6 CFU/mL. MICs were determined by three different assays: the broth micro-dilution method, the alamarBlue assay, and the CFU count. […] This bacterium was selected based on the inhibitory potency evidenced by the two series of azobenzenesulfonamides against the HpCAs.

hCA IX [5] = target: T10, hCA IX (Homo sapiens, UniProt Q16790); assay: stopped-flow CO2 hydration; assay type: biochemical; conditions: read-out: KI (nM) * / Human Isoforms / hCA IX
T10 construct: gene CA9
Description: stopped-flow CO2 hydration on hCA IX

hCA II [6] = target: T11, hCA II (Homo sapiens, UniProt P00918); assay: stopped-flow CO2 hydration; assay type: biochemical; conditions: read-out: KI (nM) * / Human Isoforms / hCA II
T11 construct: gene CA2; purchased from Merck
Description: stopped-flow CO2 hydration on hCA II

hCA IX [7] = target: T10, hCA IX; assay: biochemical; conditions: read-out: Human Isoforms / hCA IX
Method: (§1) An Applied Photophysics stopped-flow instrument was used to evaluate the ability of the test compounds to inhibit CA-catalyzed CO2 hydration. […] The CO2 concentrations ranged from 1.7 to 17 mM for the determination of the kinetic parameters and inhibition constants. Enzyme concentrations spanned from 5 to 12 nM. Stock solutions of the inhibitor (0.1 mM) were prepared in distilled–deionized water, and dilutions up to 0.01 nM were prepared with the assay buffer. Inhibitor and enzyme solutions were preincubated for 15 min at r.t. for the formation of the E–I complex. The inhibition constants were obtained by non-linear least-squares methods using PRISM 3 and the Cheng–Prusoff equation and represent the mean from at least three different determinations. Apart from human CAs I and II purchased from Merck, all the bacterial CAs were recombinant and obtained in-house. Compounds 4a–j and 5a–j were tested on a large panel of human and bacterial isoenzymes belonging to different CA families, evaluating their inhibitory activity through the CO2 hydration activity assay by means of the stopped-flow technique, and the inhibitory constants (KIs) are reported in Table 1 and Table 2, respectively. In particular, we tested the hypoxic tumor-associated hCAs IX and XII, and bacterial isoforms involved in several infectious diseases, such as those caused by H. pylori (HpαCA and HpβCA), Porphyromonas gingivalis (PgiβCA and PgiγCA), Escherichia coli (EcoβCA), Pseudomonas aeruginosa (PsCA3, belonging to the β-class), Mammaliicoccus (Staphylococcus) sciuri (MscCA, belonging to the β-class), and Streptococcus mutans (SmuCA, belonging to the β-class). The inhibition of human physiologically relevant isoforms I and II was also investigated in order to assess the compounds’ selectivity. Our main aim was to rationalize the structural requirements of sulfonamide-containing compounds useful for targeting HpCAs, in order to gain a larger knowledge for further optimization studies focusing on isoform selectivity. In fact, although the tested human and bacterial isoforms present a low degree of sequence similarity, they catalyze the same reaction and contain the catalytically active zinc ion in the active site. Thus, a comparison of the data obtained from different members of this large superfamily has a high relevance in the field. By observing Table 1 and Table 2, interesting structure–activity relationship (SAR) considerations can be inferred.

hCA II [8] = target: T11, hCA II; assay: biochemical; conditions: read-out: Human Isoforms / hCA II
Method: as §1

PsCA3 [9] = target: T2, PsCA3; assay: biochemical; conditions: read-out: Bacterial Isoforms / Ps CA3
Method: as §1

hCA I [10] = target: T4, hCA I; assay: biochemical; conditions: read-out: Human Isoforms / hCA I
Method: as §1

hCA XII [11] = target: T3, hCA XII; assay: biochemical; conditions: read-out: Human Isoforms / hCA XII
Method: as §1

EcoβCA [12] = target: T7, EcoβCA; assay: biochemical; conditions: read-out: Bacterial Isoforms / Eco βCA
Method: as §1

[13] = read-out: KI (nM) / Bacterial Isoforms / Hp αCA

T7 sequence (P61517 whole entry, canonical isoform): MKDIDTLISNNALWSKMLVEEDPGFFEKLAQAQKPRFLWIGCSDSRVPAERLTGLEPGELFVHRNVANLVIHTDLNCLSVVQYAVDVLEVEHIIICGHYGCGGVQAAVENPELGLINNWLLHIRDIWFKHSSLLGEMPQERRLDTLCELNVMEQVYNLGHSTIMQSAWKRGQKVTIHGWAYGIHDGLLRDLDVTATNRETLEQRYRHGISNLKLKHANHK
T4 sequence (P00915 2-261): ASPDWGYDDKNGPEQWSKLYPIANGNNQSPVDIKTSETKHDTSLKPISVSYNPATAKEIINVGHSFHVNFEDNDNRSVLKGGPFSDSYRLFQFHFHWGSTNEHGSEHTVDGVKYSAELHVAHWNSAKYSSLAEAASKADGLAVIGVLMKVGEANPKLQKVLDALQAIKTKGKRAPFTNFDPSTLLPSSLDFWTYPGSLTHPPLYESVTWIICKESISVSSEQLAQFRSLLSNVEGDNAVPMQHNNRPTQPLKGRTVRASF
T3 sequence (O43570 30-289 limits assumed): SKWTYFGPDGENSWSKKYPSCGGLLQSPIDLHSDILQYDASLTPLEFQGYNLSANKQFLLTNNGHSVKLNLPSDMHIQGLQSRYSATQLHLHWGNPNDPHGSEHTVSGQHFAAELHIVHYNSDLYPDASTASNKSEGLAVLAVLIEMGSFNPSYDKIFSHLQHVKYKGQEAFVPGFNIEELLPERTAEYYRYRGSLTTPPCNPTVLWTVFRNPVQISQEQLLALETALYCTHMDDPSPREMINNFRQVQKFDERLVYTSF

SMILES | Ki (HpαCA; read-out: KI (nM) * / Bacterial Isoforms / Hp αCA) [nM] | Ki (PsCA3 [1]) [nM] | Ki (hCA XII [2]) [nM] | Ki (hCA I [3]) [nM] | Ki (HpβCA) [nM] | Ki (PgiγCA) [nM] | Ki (EcoβCA [4]) [nM] | Ki (PgiβCA) [nM] | MBC (H. pylori ATCC 43504) [µg/mL] | MIC (H. pylori ATCC 43504) [µg/mL] | Ki (hCA IX [5]) [nM] | Ki (hCA II [6]) [nM] | Ki (HpαCA; [13]) [nM] | pKi (hCA IX [7]) | pKi (hCA II [8]) | pKi (PsCA3 [9]) | pKi (hCA I [10]) | pKi (hCA XII [11]) | pKi (EcoβCA [12])
Cc1cc(O)ccc1/N=N/c1ccc(S(N)(=O)=O)cc1 [4j, (E)-4-((4-hydroxy-2-methylphenyl)diazenyl)benzenesulfonamide] | 72.2 | 1840 | 84.1 | 5.3 | 138 | 914 | 3040 | 5780 | 32 (≈ 110 µM) | 16 (≈ 54.9 µM) | 213 | 4.7 | – | – | – | – | – | – | –
O=S(=O)(Nc1ccc(N=Nc2ccccc2)cc1)c1ccccc1 [5a] | – | – | – | – | – | – | – | – | 32 (≈ 94.8 µM) | 16 (≈ 47.4 µM) | – | – | 460 | 5.40 | < 4.00 | 5.03 | 6.68 | 6.02 | 5.16
N#Cc1ccc(S(=O)(=O)Nc2ccc(N=Nc3ccccc3)cc2)cc1 [5b] | – | – | – | – | – | – | – | – | 64 (≈ 177 µM) | 32 (≈ 88.3 µM) | – | – | 75.6 | 6.21 | < 4.00 | 5.24 | 6.44 | 6.12 | 4.13
N#Cc1ccc(S(=O)(=O)Nc2ccc(N=Nc3ccccc3)cc2)c(Cl)c1 [5c] | – | – | – | – | – | – | – | – | 8 (≈ 20.2 µM) | 4 (≈ 10.1 µM) | – | – | 77.6 | 5.04 | 4.61 | < 4.00 | 6.04 | 5.76 | 5.04
O=[N+]([O-])c1cccc(S(=O)(=O)Nc2ccc(N=Nc3ccccc3)cc2)c1 [5d] | – | – | – | – | – | – | – | – | 64 (≈ 167 µM) | 16 (≈ 41.8 µM) | – | – | 70.9 | 6.22 | < 4.00 | 4.04 | 5.17 | 6.67 | 5.04
Cc1ccc(S(=O)(=O)Nc2ccc(N=Nc3ccccc3)cc2)cc1[N+](=O)[O-] [5e] | – | – | – | – | – | – | – | – | 16 (≈ 40.4 µM) | 8 (≈ 20.2 µM) | – | – | 604 | 6.10 | < 4.00 | < 4.00 | 6.07 | 6.07 | 4.23
COc1ccc(S(=O)(=O)Nc2ccc(N=Nc3ccccc3)cc2)c(OC)c1 [5f] | – | – | – | – | – | – | – | – | 4 (≈ 10.1 µM) | 4 (≈ 10.1 µM) | – | – | 71.3 | 5.24 | < 4.00 | < 4.00 | 6.04 | 6.05 | 4.11
O=S(=O)(Nc1ccc(N=Nc2ccccc2)cc1)c1ccc(Cl)s1 [5g] | – | – | – | – | – | – | – | – | 16 (≈ 42.3 µM) | 16 (≈ 42.3 µM) | – | – | 55.8 | 5.39 | < 4.00 | < 4.00 | 6.04 | 5.39 | 4.23
O=S(=O)(Cc1ccccc1)Nc1ccc(N=Nc2ccccc2)cc1 [5h] | – | – | – | – | – | – | – | – | 128 (≈ 364 µM) | 64 (≈ 182 µM) | – | – | 79 | 5.35 | < 4.00 | < 4.00 | 5.26 | 5.65 | 4.05
CCS(=O)(=O)Nc1ccc(N=Nc2ccccc2)cc1 [5j] | – | – | – | – | – | – | – | – | 16 (≈ 55.3 µM) | 16 (≈ 55.3 µM) | – | – | 68.4 | 5.15 | < 4.00 | 4.16 | 6.03 | 5.48 | < 4.00
